# Assay results reported in patent publication US20230233569A1 (Revolution Medicines, Inc., priority 2020, published 2023).
# pEC50, pIC50: −log10 of the molar value.
# Tests used:
# [1] = test system: AKT1/2/3 (Ser473) phosphorylation (mTORC2) in MDA-MB-468 cells; assay: Cell based AlphaLISA assay, mTOR kinase cellular assay: inhibition of p-Akt (S473) in MDA-MB-468 cells; settings: Homo sapiens, read-out: pIC50 for Inhibition of mTORC1 and mTORC2 Substarte Phosphorylation p-AKT1/2/3-(S473) (converted)
# Description: Cell Based AlphaLISA Assays for Determining IC50 For Inhibition of P-Akt (S473), P-4E-BP1 (T37/46), and P-P70S6K (T389) in MDA-MB-468 Cells
# mTOR Kinase Cellular Assay
# To measure functional activity of mTORC1 and mTORC2 in cells the phosphorylation of 4EBP1 (Thr37/46) and P70S6K (Thr389), and AKT1/2/3 (Ser473) was monitored using AlphaLisa SureFire Ultra Kits (Perkin Elmer). MDA-MB-468 cells (ATCC® HTB-132) were cultured in 96-well tissue culture plates and treated with compounds in the disclosure at concentrations varying from 0.017-1,000 nM for two to four hours at 37° C. Incubations were terminated by removal of the assay buffer and addition of lysis buffer provided with the assay kit. Samples were processed according to the manufacturer's instructions. The Alpha signal from the respective phosphoproteins was measured in duplicate using a microplate reader (Envision, Perkin-Elmer or Spectramax M5, Molecular Devices). Inhibitor concentration response curves were analyzed using normalized IC50 regression curve fitting with control based normalization.
# AsPC-1 (K-Ras G12D) [2] = assay: Potency assay: pERK; format: cell-based; settings: Homo sapiens, ASPC1, read-out: pERK EC50
# AsPC-1 (K-Ras G12D) [3] = assay: CellTiter-Glo cell viability assay; format: cell-based; settings: Homo sapiens, ASPC1, 120 h, read-out: AsPC-1 Cell Viability assay data IC50, K-Ras G12D, 5-day treatment
# Procedure, shortened: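 Compounds dispensed directly onto seeded AsPC-1 (K-Ras G12D) or NCI-H358 (K-Ras G12C) cells; CellTiter-Glo luminescence read on day 5 after ~30 min equilibration to room temperature. Signal normalized to DMSO average (%) and fit by four-parameter logistic.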
# KRAS G12D = KRAS G12D (Homo sapiens, UniProt P01116+P62937, G12D); assay: Ras-Raf disruption / FRET / MOA assay (BRAF RBD); format: biochemical; settings: KRAS G12D FRET data IC50, Ras-Raf disruption, with Cyclophilin A
# Procedure, shortened: (§1)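 TR-FRET in 25 mM HEPES pH 7.3, 100 mM NaCl, 5 mM MgCl2, 0.1% BSA, 0.002% Tween20 with 25 μM Cyclophilin A, 12.5 nM His6-Ras-GMPPNP, 50 nM GST-BRAF RBD; compound 10-point 3-fold series from 30 μM. After 3 h at 25 °C, Eu anti-His/APC anti-GST added for 1.5 h; IC50 from ratio decrease versus DMSO.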
# KRAS G12S = KRAS G12S (Homo sapiens, UniProt P01116+P62937, G12S); assay: Ras-Raf disruption / FRET / MOA assay (BRAF RBD); format: biochemical; settings: KRAS G12S FRET data IC50, Ras-Raf disruption, with Cyclophilin A
# Procedure, shortened: as §1
# KRAS G12V = KRAS G12V (Homo sapiens, UniProt P01116+P62937, G12V); assay: Ras-Raf disruption / FRET / MOA assay (BRAF RBD); format: biochemical; settings: KRAS G12V FRET data IC50, Ras-Raf disruption, with Cyclophilin A
# Procedure, shortened: as §1
# KRAS G13C = KRAS G13C (Homo sapiens, UniProt P01116+P62937, G13C); assay: Ras-Raf disruption / FRET / MOA assay (BRAF RBD); format: biochemical; settings: KRAS G13C FRET data IC50, Ras-Raf disruption, with Cyclophilin A
# Procedure, shortened: as §1
# KRAS G13D = KRAS G13D (Homo sapiens, UniProt P01116+P62937, G13D); assay: Ras-Raf disruption / FRET / MOA assay (BRAF RBD); format: biochemical; settings: KRAS G13D FRET data IC50, Ras-Raf disruption, with Cyclophilin A
# Procedure, shortened: as §1
# KRAS Q61H = KRAS Q61H (Homo sapiens, UniProt P01116+P62937, Q61H); assay: Ras-Raf disruption / FRET / MOA assay (BRAF RBD); format: biochemical
# Procedure, shortened: as §1
# KRAS WT = KRAS WT (Homo sapiens, UniProt P01116+P62937); assay: Ras-Raf disruption / FRET / MOA assay (BRAF RBD); format: biochemical; settings: KRAS WT FRET data IC50, Ras-Raf disruption, with Cyclophilin A
# Procedure, shortened: as §1
# NRAS G12C = NRAS G12C (Homo sapiens, UniProt P01111+P62937, G12C); assay: Ras-Raf disruption / FRET / MOA assay (BRAF RBD); format: biochemical; settings: NRAS G12C FRET data IC50, NRAS G12C
# Procedure, shortened: as §1
# NRAS Q61K = NRAS Q61K (Homo sapiens, UniProt P01111+P62937, Q61K); assay: Ras-Raf disruption / FRET / MOA assay (BRAF RBD); format: biochemical
# Procedure, shortened: as §1
# NRAS Q61R = NRAS Q61R (Homo sapiens, UniProt P01111+P62937, Q61R); assay: Ras-Raf disruption / FRET / MOA assay (BRAF RBD); format: biochemical
# Procedure, shortened: as §1
# NRAS WT = NRAS WT (Homo sapiens, UniProt P01111+P62937); assay: Ras-Raf disruption / FRET / MOA assay (BRAF RBD); format: biochemical
# Procedure, shortened: as §1
# KRAS G12C = KRAS G12C (Homo sapiens, UniProt P01116+P62937, G12C); assay: Ras-Raf disruption / FRET / MOA assay (BRAF RBD); format: biochemical; settings: KRAS G12C FRET data IC50, Ras-Raf disruption, with Cyclophilin A
# Procedure, shortened: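 His6-K-Ras G12C-GMPPNP (12.5 nM), GST-BRAF RBD (50 nM) and tagless Cyclophilin A (25 μM) incubated 3 h at 25 °C with compound (10-point 3-fold series from 30 μM), pH 7.3 HEPES buffer. Anti-His Eu/anti-GST APC added for 1.5 h; decreased TR-FRET ratio vs DMSO gives IC50.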
# KRAS G13C, sequence (P01116 1-169 isoform P01116-2 G13C limits assumed): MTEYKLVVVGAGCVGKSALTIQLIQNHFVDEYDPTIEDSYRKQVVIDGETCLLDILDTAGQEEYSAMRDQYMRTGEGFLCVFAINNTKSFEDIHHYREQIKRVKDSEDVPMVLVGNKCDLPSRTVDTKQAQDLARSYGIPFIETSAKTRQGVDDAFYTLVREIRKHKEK
# KRAS G13C, sequence (P62937 whole entry): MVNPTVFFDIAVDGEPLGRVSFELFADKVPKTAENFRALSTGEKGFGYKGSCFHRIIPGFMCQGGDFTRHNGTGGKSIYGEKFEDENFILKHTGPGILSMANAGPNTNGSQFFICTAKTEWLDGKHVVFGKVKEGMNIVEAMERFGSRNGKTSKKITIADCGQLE
# KRAS Q61H, sequence (P01116 1-169 isoform P01116-2 Q61H limits assumed): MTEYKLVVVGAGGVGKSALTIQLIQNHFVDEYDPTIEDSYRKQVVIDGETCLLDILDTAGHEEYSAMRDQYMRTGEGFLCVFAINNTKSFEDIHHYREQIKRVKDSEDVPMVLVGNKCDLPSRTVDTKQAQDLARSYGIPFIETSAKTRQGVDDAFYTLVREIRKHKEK
# KRAS Q61H, sequence (P62937 whole entry): as the sequence (P62937 whole entry) above
# NRAS G12C, sequence (P01111 whole entry G12C): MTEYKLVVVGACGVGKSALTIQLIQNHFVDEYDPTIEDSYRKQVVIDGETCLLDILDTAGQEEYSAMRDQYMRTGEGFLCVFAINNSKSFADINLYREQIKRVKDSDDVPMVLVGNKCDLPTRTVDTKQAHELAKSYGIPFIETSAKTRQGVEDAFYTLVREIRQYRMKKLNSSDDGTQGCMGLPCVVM
# NRAS G12C, sequence (P62937 whole entry): as the sequence (P62937 whole entry) above
# NRAS WT, sequence (P01111 whole entry): as the sequence (P01111 whole entry G12C) above, with C12G counted along it
# NRAS WT, sequence (P62937 whole entry): as the sequence (P62937 whole entry) above
# KRAS G12C, sequence (P01116 1-169 isoform P01116-2 G12C limits assumed): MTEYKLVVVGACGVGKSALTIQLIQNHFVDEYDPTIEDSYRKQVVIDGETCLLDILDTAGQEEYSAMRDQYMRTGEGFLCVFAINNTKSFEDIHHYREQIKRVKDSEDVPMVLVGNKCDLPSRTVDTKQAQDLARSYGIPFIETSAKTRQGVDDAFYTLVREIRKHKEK
# KRAS G12C, sequence (P62937 whole entry): as the sequence (P62937 whole entry) above
# KRAS G12S, sequence (P01116 1-169 isoform P01116-2 G12S limits assumed): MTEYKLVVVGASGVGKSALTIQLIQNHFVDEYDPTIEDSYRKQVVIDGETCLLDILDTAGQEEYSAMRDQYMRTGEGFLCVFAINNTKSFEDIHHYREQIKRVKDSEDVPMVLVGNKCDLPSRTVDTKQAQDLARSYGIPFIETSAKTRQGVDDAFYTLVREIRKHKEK
# KRAS G12S, sequence (P62937 whole entry): as the sequence (P62937 whole entry) above
# KRAS G12V, sequence (P01116 1-169 isoform P01116-2 G12V limits assumed): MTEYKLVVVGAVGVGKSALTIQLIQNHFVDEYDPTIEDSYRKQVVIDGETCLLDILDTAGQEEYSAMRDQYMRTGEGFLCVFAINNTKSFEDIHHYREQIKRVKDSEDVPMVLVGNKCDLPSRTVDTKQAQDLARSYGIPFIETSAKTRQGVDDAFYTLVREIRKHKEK
# KRAS G12V, sequence (P62937 whole entry): as the sequence (P62937 whole entry) above
# NRAS Q61R, sequence (P01111 whole entry Q61R): as the sequence (P01111 whole entry G12C) above, with C12G, Q61R counted along it
# NRAS Q61R, sequence (P62937 whole entry): as the sequence (P62937 whole entry) above
# KRAS WT, sequence (P01116 1-169 isoform P01116-2 limits assumed): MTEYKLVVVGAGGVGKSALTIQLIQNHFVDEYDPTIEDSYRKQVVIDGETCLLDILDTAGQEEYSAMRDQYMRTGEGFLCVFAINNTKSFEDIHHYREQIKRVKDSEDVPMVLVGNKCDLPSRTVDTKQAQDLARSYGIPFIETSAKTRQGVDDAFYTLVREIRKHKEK
# KRAS WT, sequence (P62937 whole entry): as the sequence (P62937 whole entry) above
# NRAS Q61K, sequence (P01111 whole entry Q61K): as the sequence (P01111 whole entry G12C) above, with C12G, Q61K counted along it
# NRAS Q61K, sequence (P62937 whole entry): as the sequence (P62937 whole entry) above
# KRAS G12D, sequence (P01116 1-169 isoform P01116-2 G12D limits assumed): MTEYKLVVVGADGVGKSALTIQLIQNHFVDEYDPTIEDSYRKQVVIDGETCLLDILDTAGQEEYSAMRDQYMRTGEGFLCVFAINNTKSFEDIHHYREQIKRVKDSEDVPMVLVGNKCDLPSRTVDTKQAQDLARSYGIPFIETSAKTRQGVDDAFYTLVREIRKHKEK
# KRAS G12D, sequence (P62937 whole entry): as the sequence (P62937 whole entry) above
# KRAS G13D, sequence (P01116 1-169 isoform P01116-2 G13D limits assumed): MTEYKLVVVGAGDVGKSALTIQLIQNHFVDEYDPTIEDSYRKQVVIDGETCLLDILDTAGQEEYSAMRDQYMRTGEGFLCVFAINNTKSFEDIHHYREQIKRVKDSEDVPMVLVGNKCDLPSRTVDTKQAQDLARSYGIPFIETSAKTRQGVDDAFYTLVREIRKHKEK
# KRAS G13D, sequence (P62937 whole entry): as the sequence (P62937 whole entry) above
Compound,IC50 [1] [nM],pEC50 (AsPC-1 (K-Ras G12D) [2]),pIC50 (AsPC-1 (K-Ras G12D) [3]),pIC50 (KRAS G12D),pIC50 (KRAS G12S),pIC50 (KRAS G12V),pIC50 (KRAS G13C),pIC50 (KRAS G13D),pIC50 (KRAS Q61H),pIC50 (KRAS WT),pIC50 (NRAS G12C),pIC50 (NRAS Q61K),pIC50 (NRAS Q61R),pIC50 (NRAS WT),pIC50 (KRAS G12C)
CO[C@H]1C[C@@H]2CC[C@@H](C)[C@@](O)(O2)C(=O)C(=O)N2CCCC[C@H]2C(=O)O[C@H]([C@H](C)C[C@@H]2CC[C@@H](OC(=O)NCCOCCOCCN3CCN(CCOCCOCCOCCOCCC(=O)N4CCc5cc(Cn6nc(-c7ccc8oc(N)nc8c7)c7c(N)ncnc76)ccc5C4)CC3)[C@H](OC)C2)C[C@@H](O)[C@H](C)/C=C(\C)[C@@H](O)[C@@H](OC)C(=O)[C@H](C)C[C@H](C)/C=C/C=C/C=C/1C [Example 135],> 1000,,,,,,,,,,,,,,
CO[C@H]1C[C@@H]2CC[C@@H](C)[C@@](O)(O2)C(=O)C(=O)N2CCCC[C@H]2C(=O)O[C@H]([C@H](C)C[C@@H]2CC[C@@H](OC(=S)NCc3cnc(N4CCN(C(=O)CCOCCN5CCN(c6ncc(C(=O)N7CCc8cc(Cn9nc(-c%10ccc%11oc(N)nc%11c%10)c%10c(N)ncnc%109)ccc8C7)cn6)CC5)CC4)nc3)[C@H](OC)C2)CC(=O)[C@H](C)/C=C(\C)[C@@H](O)[C@@H](OC)C(=O)[C@H](C)C[C@H](C)/C=C/C=C/C=C/1C [Example 116],> 1000,,,,,,,,,,,,,,
CO[C@H]1C[C@@H]2CC[C@@H](C)[C@@](O)(O2)C(=O)C(=O)N2CCCC[C@H]2C(=O)O[C@H]([C@H](C)C[C@@H]2CC[C@@H](OC(=O)NCCOCCOCCOCCOCCOCCOCCOCCOCC(=O)N3CCc4cc(Cn5nc(-c6ccc7oc(N)nc7c6)c6c(N)ncnc65)ccc4C3)[C@H](OC)C2)C[C@@H](O)[C@H](C)/C=C(\C)[C@@H](O)[C@@H](OC)C(=O)[C@H](C)C[C@H](C)/C=C/C=C/C=C/1C [Example 72],≤ 3.16,,,,,,,,,,,,,,
CO[C@H]1C[C@@H]2CC[C@@H](C)[C@@](O)(O2)C(=O)C(=O)N2CCCC[C@H]2C(=O)O[C@H]([C@H](C)C[C@@H]2CC[C@@H](OC(=O)NCc3cnc(N4CCN(C(=O)CCOCCN5CCN(c6ncc(C(=O)NCCS(=O)(=O)c7ccc(C(=O)N8CCOc9ccc(-c%10ccc(N)nc%10)cc9C8)c(C)c7)cn6)CC5)CC4)nc3)[C@H](OC)C2)CC(=O)[C@H](C)/C=C(\C)[C@@H](O)[C@@H](OC)C(=O)[C@H](C)C[C@H](C)/C=C/C=C/C=C/1C [Example 121],> 1000,,,,,,,,,,,,,,
CO[C@H]1C[C@@H]2CC[C@@H](C)[C@@](O)(O2)C(=O)C(=O)N2CCCC[C@H]2C(=O)O[C@H]([C@H](C)C[C@@H]2CC[C@@H](OC(=O)NCc3cnc(N4CCN(C(=O)CCOCCN5CCN(c6ncc(C(=O)N7CCc8cc(Cn9nc(-c%10ccc%11oc(N)nc%11c%10)c%10c(N)ncnc%109)ccc8C7)cn6)CC5)CC4)nc3)[C@H](OC)C2)C[C@H](N=[N+]=[N-])[C@H](C)/C=C(\C)[C@@H](O)[C@@H](OC)C(=O)[C@H](C)C[C@H](C)/C=C/C=C/C=C/1C [Example 151],> 1000,,,,,,,,,,,,,,
CCn1c(-c2cccnc2[C@H](C)OC)c2c3cc(ccc31)-c1cc(O)cc(c1)C[C@H](NC(=O)[C@H](C(C)C)N(C)C(=O)CN(C)C(=O)[C@H]1CN1C1COC1)C(=O)N1CCC[C@H](N1)C(=O)OCC(C)(C)C2 (stereo partly shown) [Example 275],,> 5.30,5.00 to 6.00,6.00 to 7.00,7.00 to 8.00,6.00 to 7.00,7.00 to 8.00,6.00 to 7.00,7.00 to 8.00,6.00 to 7.00,7.00 to 8.00,6.00 to 7.00,6.00 to 7.00,6.00 to 7.00,7.00 to 8.00
CCn1c(-c2cccnc2[C@H](C)OC)c2c3cc(ccc31)-c1cc(O)cc(c1)C[C@H](NC(=O)[C@H](C(C)C)N(C)C(=O)CN(C)C(=O)[C@H]1CN1CCCN1CCOC1=O)C(=O)N1CCC[C@H](N1)C(=O)OCC(C)(C)C2 (stereo partly shown) [Example 272],,> 5.30,5.00 to 6.00,6.00 to 7.00,7.00 to 8.00,7.00 to 8.00,7.00 to 8.00,6.00 to 7.00,7.00 to 8.00,7.00 to 8.00,> 8.00,6.00 to 7.00,6.00 to 7.00,7.00 to 8.00,> 8.00
CCn1c(-c2cccnc2[C@H](C)OC)c2c3cc(ccc31)-c1cc(O)cc(c1)C[C@H](NC(=O)[C@H](C(C)C)N(C)C(=O)CN(C)C(=O)[C@@H]1N[C@@H]1C1COC1)C(=O)N1CCC[C@H](N1)C(=O)OCC(C)(C)C2 [Example 281],,> 5.30,6.00 to 7.00,7.00 to 8.00,> 8.00,7.00 to 8.00,7.00 to 8.00,7.00 to 8.00,> 8.00,7.00 to 8.00,> 8.00,7.00 to 8.00,6.00 to 7.00,7.00 to 8.00,> 8.00
"CCn1c(-c2cccnc2[C@H](C)OC)c2c3cc(ccc31)-c1cc(O)cc(c1)C[C@H](NC(=O)[C@H](C(C)C)N(C)C(=O)CN(C)C(=O)[C@H]1CN1CCCN1CCCC1=O)C(=O)N1CCC[C@H](N1)C(=O)OCC(C)(C)C2 (stereo partly drawn) [Example 268, (2R)—N-(2-(((2S)-1-(((6^3S,4S)-1^1-ethyl-2^5-hydroxy-1^2-(2-((S)-1-methoxyethyl)pyridin-3-yl)-10,10-dimethyl-5,7-dioxo-6^1,6^2,6^3,6^4,6^5,6^6-hexahydro-1^1H-8-oxa-1(5,3)-indola-6(1,3)-pyridazina-2(1,3)-benzenacycloundecaphane-4-yl)amino)-3-methyl-1-oxobutan-2-yl)(methyl)amino)-2-oxoethyl)-N-methyl-1-(3-(2-oxopyrrolidin-1-yl)propyl)aziridine-2-carboxamide]",,> 5.30,5.00 to 6.00,6.00 to 7.00,7.00 to 8.00,7.00 to 8.00,7.00 to 8.00,6.00 to 7.00,7.00 to 8.00,7.00 to 8.00,> 8.00,6.00 to 7.00,6.00 to 7.00,7.00 to 8.00,> 8.00
